From paper PMC11211886 (Frontiers in Pharmacology, 2024)
Values after ≈ are worked out from the molar mass of the structure shown.

Assays:
plasma proteins = assay: Plasma protein binding (RED), mouse plasma; assay type: in vitro ADME
Description: The plate containing plasma and buffer was equilibrated for 6 h in a 37°C water shaking bath. After incubation, aliquots of buffer and plasma (20 µL) on both sides were collected and precipitated using organic solvents. […] The post-dialysis recovery of amdizalisib was also measured.

CYP3A4/5 = assay: Time-dependent CYP inhibition in HLM, CYP3A4/5; assay type: in vitro ADME, human; settings: 10 μM, 30 min pre-incubation with NADPH
Description: The procedure of time-dependent CYP inhibition was similar to that used for CYP reversible inhibition, as mentioned above, except that a pre-incubation step was added. […] Another appropriate volume of the NADPH-regenerating system and probe substrate were added to initiate the CYP isoform enzyme activity test step. For this step, the incubation period was 10 min, except for CYP2B6, CYP2C8, and CYP3A4/5 (probe substrate: midazolam), which was 3 min to make sure the reaction was under initial linear rates. After incubation for the designated time periods at 37°C, the ice-cold acetonitrile containing IS was added to quench the reaction. […] (Ainactivator/[…] represents the enzyme activity remaining due to the inhibition by the diluted inactivator in the enzyme activity test step, and (Ainactivator/[…] represents the remaining enzyme activity due to pre-incubation loss plus inhibition by the diluted inactivator in the enzyme activity test step.

CYP1A2 = assay: CYP induction in human hepatocytes, CYP1A2 enzyme activity
Description: […] […] […] Enzyme activity for each CYP isoform was reported as a fold change over vehicle control and the percent of positive control (detailed calculation in Supplementary 1.1). Hepatocytes were harvested with a lysis buffer from RNeasy 96 Kit (Qiagen Inc., Germantown, MD, USA) to isolate RNA, which was analyzed by real-time quantitative polymerase chain reaction (RT-PCR). […] Emax (the maximal observed induction) and EC50 (the concentration that supports half-maximal induction) were estimated by non-linear regression of fold increase in CYP mRNA expression versus concentration plots.
The fold of vehicle control and the percent of positive control were calculated with the formulas below:
Fold of vehicle control = CYPs activity of test compound (or positive control) treated sample / CYPs activity of vehicle control treated sample
% of positive control = [(fold change in treated sample)-1] / [(fold change in positive control)-1] × 100
Based on the enzyme activity, a minimum of 2-fold increase compared to vehicle control for the positive control and ≥40% of the positive control for the test article was considered as the cutoff for a positive signal in in vitro induction assay.

Solubility = assay type: physicochemical; settings: water, pH 7.78
[1] = Whole blood-to-plasma partition, rat blood; assay type: in vitro ADME
Description: (§1) The whole blood and plasma samples were incubated at 37°C for up to 1 h. Serial samples (150 µL) were collected at different time points (0, 10, and 60 min) and transferred into new tubes. The whole blood samples were then centrifuged at 1700 g for 15 min to harvest plasma.

[2] = Whole blood-to-plasma partition, human blood; assay type: in vitro ADME
Description: as §1

## C[C@H](Nc1ncnc(N)c1C#N)c1cc2ncc(Cl)n2nc1-c1ccccc1 [Amdizalisib]
Plasma proteins; 1 µM
  Binding fraction to plasma proteins, Mouse: 91.5 ± 1.01%
Plasma proteins; mouse, 6 h, 0.1 µM, pH 7.4
  Binding fraction to plasma proteins, Mouse: 91.1 ± 0.95%
Plasma proteins; mouse, 6 h, 20 µM, pH 7.4
  Binding fraction to plasma proteins, Mouse: 91.3 ± 0.89%
CYP3A4/5; substrate midazolam
  activity loss of CYP3A4/5: 16.9%
CYP3A4/5; substrate testosterone
  activity loss of CYP3A4/5: 11.7%
CYP1A2; CYP1A2, donor seven, 1 µM
  Enzyme activity Percent of PC (%): 1.00%
CYP1A2; CYP1A2, donor seven, 3 µM
  Enzyme activity Percent of PC (%): -12.5%
CYP1A2; CYP1A2, donor seven, 10 µM
  Enzyme activity Percent of PC (%): 16.5%
CYP1A2; CYP1A2, donor seven, 20 µM
  Enzyme activity Percent of PC (%): 9.00%
CYP1A2; CYP1A2, donor seven, 30 µM
  Enzyme activity Percent of PC (%): 16.6%
CYP1A2; CYP1A2, donor six, 1 µM
  Enzyme activity Percent of PC (%): 2.40%
CYP1A2; CYP1A2, donor six, 3 µM
  Enzyme activity Percent of PC (%): 3.90%
CYP1A2; CYP1A2, donor six, 10 µM
  Enzyme activity Percent of PC (%): 7.60%
CYP1A2; CYP1A2, donor six, 20 µM
  Enzyme activity Percent of PC (%): 14.9%
CYP1A2; CYP1A2, donor six, 30 µM
  Enzyme activity Percent of PC (%): 7.30%
CYP1A2; CYP1A2, donor two, 1 µM
  Enzyme activity Percent of PC (%): 1.50%
CYP1A2; CYP1A2, donor two, 3 µM
  Enzyme activity Percent of PC (%): 0.30%
CYP1A2; CYP1A2, donor two, 10 µM
  Enzyme activity Percent of PC (%): 7.30%
CYP1A2; CYP1A2, donor two, 20 µM
  Enzyme activity Percent of PC (%): 8.90%
CYP1A2; CYP1A2, donor two, 30 µM
  Enzyme activity Percent of PC (%): 14.6%
CYP1A2; up to 30.0 µM, all three donors
  induction of CYP1A2 enzyme activity: not considered an inducer
Solubility
  solubility: 25 µg/mL (≈ 64 µM)
[1]; rat blood, 1 μM, 0 min
  RB: 1.08
[1]; rat blood, 1 μM, 60 min
  RB: 1.03
[1]; rat blood, 10 min
  fuB: 8.41%
[1]; rat, 0 min, 1 µM
  fuB: 9.11%
[1]; rat, 1 µM
  fup: 0.0980
[1]; rat, 10 min, 1 µM
  RB: 1.16
[1]; rat, 60 min, 1 µM
  fuB: 9.49%
[2]; human blood, 0 min
  fuB: 11.7%
[2]; human, 0 min, 1 µM
  RB: 0.615
[2]; human, 1 µM
  fup: 0.0720
[2]; human, 10 min, 1 μM
  RB: 0.680
  fuB: 10.6%
[2]; human, 60 min, 1 μM
  RB: 0.797
  fuB: 9.02%
